The results in this text go back to patent publication US11702428B2, “Chemical compounds as inhibitors of interleukin-1 activity” (Genentech, Inc., priority 2017, dated 2023).

A word on the Cmax: it is the highest concentration seen after dosing. As usually defined, the clearance is a measure of how efficiently the substance is removed, as volume per time. Lower therefore signals inefficient removal. The half-life is how long it takes for the measured level to halve. A word on the IC50: it is the point on the concentration scale where inhibition reaches its midpoint.

Series [1] is described as follows: Pharmacokinetics in mice. It counts as in vivo, CD-1 Mice. Conditions: Male CD-1 Mice; for AUC(0-t): read-out: AUC 0-24 hr. Here is the method:
The intravenous dosing solutions were administered at 1 mg/kg and were made by dissolving the test article into the formulations shown below. The oral dosing suspensions or solutions were administered at 10 mg/kg and were made by dissolving the test article in the formulations shown below. Blood samples were collected into tubes containing either K2EDTA or sodium heparin and kept chilled on ice block or wet ice immediately following collection and during processing. After centrifugation, the resulting plasma samples were stored in a freezer at −80° C. until samples were analyzed. Pharmacokinetic parameters were determined following measurement of compound concentrations in plasma using standard bioanalytical methods at timepoints ranging from 0 to 24 hours.

Series [2] concerns LPS and nigericin stimulated cells. Description: cells. The class given is cell-based. Conditions: Homo sapiens, read-out: CTG protective IC50. Here is the method:
Viability of compound treated cells is measured using CellTiter-Glo® assay (Promega, Madison, Wis.) that measures the ATP content of cells which is proportional to the number of live cells within a well. This is a counter-screen to establish that the reduction of IL-1β levels in LPS and nigericin stimulated and compound treated cells is not due to cytotoxicity, but rather through the inhibition of the inflammasome pathway. Compounds inhibiting NRLP3 inflammasome activation ultimately increase the viability of LPS and nigericin stimulated cells by blocking NLRP3 mediated pyroptosis that would otherwise lead to cell lysis.

The target in series [3] is NLRP3 inflammasome (Homo sapiens, UniProt Q96P20). Description: NLRP3 inflammasome activation assay in PBMCs (LPS priming, nigericin), IL-1β by ELISA. It counts as cell-based. On the set-up: Human peripheral blood mononuclear cells (PBMCs); host or cells: primary human PBMCs from healthy donors. Particulars: LPS, nigericin, read-out: PBMC IL-1β IC50. Here is the method:
Some of the following assays were used to determine the inhibitory activity of the compounds on the NLRP3 inflammasome using a common inflammasome activation stimuli-nigericin.
Human peripheral blood mononuclear cells (PBMCs), consisting of lymphocytes (T, B and NK cells), monocytes and dendritic cells, were freshly isolated from human peripheral blood from healthy donors. Cells were obtained through an IRB approved donor program by iXCells Biotechnologies where all the donors were tested for bacterial and viral infections. Cells were purified from peripheral blood using ficoll gradient centrifugation.
Cells were then stimulated with 10 uM Nigericin (Sigma Aldrich; InvivoGen) for 1.5 h. Plates were centrifuged at 1,500 rpm for 3 minutes to pellet cells and supernatant was transferred into new plates for subsequent experiments.
For ELISA assays cells were seeded into 96-well plates. Post study, supernatants were removed and the levels of mature IL-1β, IL-18 and TNFα (Quantikine ELISA, R&D systems) were measured in cell conditioned media by ELISA according to manufacturer's instructions.

Series [4] in a line: Human microsomal stability (Eh). The class given is in vitro ADME. Particulars: hepatic extraction ratio; 0.5 mg/mL microsomal protein, 1 μM, NADPH; liver blood flow 20.7 mL/min/kg. Here is the method:
The stock solutions of test article and positive control were prepared at a concentration of 10 mM using DMSO as diluents. All stock solutions were then diluted to working concentrations at 0.25 mM with 70% acetonitrile. The cofactor used in this study was NADPH regenerating system, that was composed of 6.5 mM NADP, 16.5 mM G-6-P, 3 U/mL G-6-P D. The quench reagent was consisted of acetonitrile containing tolbutamide and propanolol (serve as internal standard). Incubation mixtures containing 0.5 mg/mL liver microsomal protein and […] test article/positive control in 100 mM potassium phosphate buffer.
The 0-minute samples were prepared by addition of an 80 μL aliquot of each incubation mixture to 300 μL quench reagent to precipitate proteins. The samples were vortexed, and then a 20 μL aliquot of the NADPH regenerating system was added in. The reaction was initiated by addition of 80 μL of the NADPH regenerating system to 320 μL of each incubation mixture. The final incubation conditions achieved in 400 μL are: 0.5 mg/mL microsomal protein, 1 μM test article/positive control, 1.3 mM NADP, 3.3 mM glucose 6 phosphate, 0.6 U/mL glucose 6 phosphate dehydrogenase. The mixtures were incubated in a 37° C. water bath with gentle shaking. A 100 μL aliquot of each mixture was removed at 10, 30, 90 minutes to a clean 96-well plate which contains 300 μL quench reagent to precipitate proteins, and centrifuged (4000×g, 10 min). 80 μL of supernatant are taken into 96-well assay plates pre-added with 160 μL ultrapure water, and then analyzed by LC-MS/MS. Hepatic extraction ratio (Eh) values were calculated from measured in vitro clearance assuming a human liver blood flow of 20.7 mL/min/kg. Eh values of <0.3 are indicative of compounds with favorable metabolic stability.

The mark [5] stands for this setting: mouse, plasma, PO, 10 mg/kg, 0.5% MC.
The mark [6] stands for this setting: LPS and nigericin stimulated cells, CellTiter-Glo.

Where two headings read alike, the source gives them in different places. Some results are limits rather than exact numbers.

Chain of NLRP3 inflammasome (Q96P20 whole entry): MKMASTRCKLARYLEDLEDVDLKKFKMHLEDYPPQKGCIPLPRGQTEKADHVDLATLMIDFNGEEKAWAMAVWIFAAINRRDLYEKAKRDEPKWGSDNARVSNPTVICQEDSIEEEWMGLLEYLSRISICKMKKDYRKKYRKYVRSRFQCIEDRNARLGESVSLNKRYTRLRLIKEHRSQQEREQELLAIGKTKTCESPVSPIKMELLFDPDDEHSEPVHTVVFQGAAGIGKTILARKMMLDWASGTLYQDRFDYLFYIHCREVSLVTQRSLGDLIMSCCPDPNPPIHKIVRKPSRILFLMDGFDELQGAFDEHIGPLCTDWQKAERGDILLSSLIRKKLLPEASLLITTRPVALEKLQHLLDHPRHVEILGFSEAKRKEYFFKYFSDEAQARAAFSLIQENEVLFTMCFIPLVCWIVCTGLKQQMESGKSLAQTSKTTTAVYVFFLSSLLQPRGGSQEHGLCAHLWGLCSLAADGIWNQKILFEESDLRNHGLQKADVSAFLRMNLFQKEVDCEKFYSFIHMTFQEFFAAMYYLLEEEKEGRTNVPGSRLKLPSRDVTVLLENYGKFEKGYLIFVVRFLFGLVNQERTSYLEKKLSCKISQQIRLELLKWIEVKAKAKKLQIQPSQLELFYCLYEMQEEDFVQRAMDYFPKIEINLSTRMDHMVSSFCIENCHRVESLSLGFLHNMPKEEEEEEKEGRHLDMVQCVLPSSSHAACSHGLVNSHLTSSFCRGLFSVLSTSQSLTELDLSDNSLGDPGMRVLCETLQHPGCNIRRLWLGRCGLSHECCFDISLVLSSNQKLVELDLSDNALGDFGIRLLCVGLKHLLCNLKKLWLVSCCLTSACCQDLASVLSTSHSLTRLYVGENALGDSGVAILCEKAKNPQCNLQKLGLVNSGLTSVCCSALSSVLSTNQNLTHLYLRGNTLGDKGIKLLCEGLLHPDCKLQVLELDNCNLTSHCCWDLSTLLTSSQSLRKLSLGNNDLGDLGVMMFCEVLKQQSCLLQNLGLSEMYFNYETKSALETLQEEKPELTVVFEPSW

On to `O=C(Nc1c2c(cc3c1CCC3)CCC2)NS(=O)(=O)c1cnn2c1OCC1(CC1)C2` [B], for which the “Bioavailability (% F)” value in series [1] (PO, 10 mg/kg, 0.5% MC) was 100 % F. In series [1] (mouse, plasma, IV, 1 mg/kg), the Cmax was found to be 11700 ng/mL, the clearance was 0.833 mL/min/kg, the half-life is 114 min and the AUC(0-t) turned out to be 20.2 µg·h/mL. Also, the Vd in series [1] (mouse, plasma, IV, 1 mg/kg, read-out: Vz) amounted to 0.13 L/kg. Besides, in series [1] (setting [5]), the peak level (Cmax) was 63000 ng/mL, the half-life is 114 min and the AUC(0-t) stood at 256 µg·h/mL.
On to `CC(=O)NCC1COc2c(S(=O)(=O)NC(=O)Nc3c4c(cc5c3CCC5)CCC4)cnn2C1` (stereo not shown), for which the IC50 in series [2] (setting [6]) and in series [3] was less than 100 nM in each case.
Regarding `C#CCOC1COc2c(S(=O)(=O)NC(=O)Nc3c4c(cc5c3CCC5)CCC4)cnn2C1` (stereo not shown), the IC50 in series [2] (setting [6]) and in series [3] was less than 100 nM in each case.
As for `CN(CC1COc2c(S(=O)(=O)NC(=O)Nc3c4c(cc5c3CCC5)CCC4)cnn2C1)C(=O)OC(C)(C)C` (stereo not shown), the IC50 in series [2] (setting [6]) and in series [3] was 100 to 1000 nM throughout.
In the case of `CN(C)C1COc2c(S(=O)(=O)NC(=O)Nc3c4c(cc5c3CCC5)CCC4)cnn2C1` (stereo not shown), the IC50 in series [2] was less than 100 nM. Also, in series [4], the “Human Microsomal Stability (Eh)” value turned out to be 0.2.
With `O=C(Nc1c2c(cc3c1CCC3)CCC2)NS(=O)(=O)c1cnn2c1C(F)(F)CCC2`, the values for the IC50 in series [2] (setting [6]) and in series [3] were greater than 10000 nM and 100 to 1000 nM, respectively.
Take `CCO[C@@H]1COc2c(S(=O)(=O)NC(=O)Nc3c4c(cc5c3CCC5)CCC4)cnn2C1`: the IC50 in series [2] (setting [6]) and in series [3] was 100 to 1000 nM throughout.
On to `O=C(Nc1c2c(cc3c1CCC3)CCC2)NS(=O)(=O)c1cnn2c1OCCCC2` [drawing 515], for which the IC50 in series [2] (setting [6]) and in series [3] was less than 100 nM in each case.
With `O=C(Nc1c2c(cc3c1CCC3)CCC2)NS(=O)(=O)c1cnn2c1OCC(N1CC(F)C1)C2` (stereo not shown), the results for the IC50 in series [2] (setting [6]) and in series [3] were less than 100 nM and 100 to 1000 nM, respectively.
As for `CC(C)c1cc(C#N)cc(C(C)C)c1NC(=O)NS(=O)(=O)c1cnn2c1OCCC2`, the IC50 in series [2] (setting [6]) is less than 100 nM; in series [3] it was 100 to 1000 nM.
The like results for `O=C(Nc1c2c(cc3c1CCC3)CCC2)NS(=O)(=O)c1cc2n(n1)CCNC2` were, in that order, less than 100 nM and 100 to 1000 nM.
The matching figures for `O=C(Nc1cc(C2CC2)cc(C2CC2)c1)NS(=O)(=O)c1cnn2c1OCCC2`: less than 100 nM and 100 to 1000 nM.
